The values that follow come from US12012410B2, “Substituted pyrazolo[1,5-a]pyrazines for spinal muscular atrophy” (REBORNA BIOSCIENCES, INC., priority 2018, dated 2024).

This assay deals with FL-SMN mRNA (SMN transcript containing exons 7 and 8). The assay is described as follows: Live-cell assay to measure changes in FL-SMN mRNA levels (qPCR) after exposure to the compounds. Type of assay: cell-based, human. Conditions: fibroblasts derived from patients SMA (GM03813); 24 hours incubation. How it is done: In this example, each test compound was administered to cultured cells, and changes in the expression levels of mRNA transcripts of SMN, i.e., FL-SMN containing exons 7 and 8 and Delta7 with exon 7 skipped, were examined using PCR.
Fibroblasts derived from patients SMA (GM03813) (Coriell Cell Repositories) were cultured with passages using DMEM (High Glucose) (Life Technologies) supplemented with 10% FBS (Life Technologies). Cells were seeded in tissue-culture-treated 96-well plates (Corning) at 1.5 or 0.5×10^4 cells/well in 100 μL of medium. The cells were incubated in 5% CO2 for 6 hours, and the medium was replaced with 100 μL of medium (with DMSO, 0.1% final concentration) containing each of the compounds given in the Examples. After additional incubation for 24 hours under the same conditions, the cells were washed once with D-PBS(—) (Wako) and 25 μL/well of the lysis solution (with gDNA Remove) contained in the SuperPrep (registered trademark) Cell Lysis & RT Kit for qPCR (Toyobo life science) was added according to the manufacturer's instructions so that the cells were lysed and the genomic DNA was degraded. Furthermore, 5 μL of the STOP solution (with RNase Inhibitor) contained in the kit was added to provide RNA-containing solutions. Six microliters of the RNA-containing solutions were each mixed with 14 μL of a reverse transcription solution containing transcriptase together with dNTP, random primers and an oligodT primer. Reverse transcription was performed at 37° C. (15 min), 50° C. (5 min), and 98° C. (5 min), to give total cDNAs. The total cDNAs were diluted 30-fold with Ultra-pure water (Invitrogen) to measure the expression levels of FL-SMN, delta7, and GAPDH. For quantitative PCR (qPCR), a PCR solution was prepared according to the instructions of the manufacturer of the THUNDERBIRD (registered trademark) Probe qPCR Mix (Toyobo life science). Five microliters of the diluted total cDNA solutions and oligo DNA standard solutions, each containing either 001-Standard FL-SMN (SEQ ID NO. 1) or 002-Standard delta7 (SEQ ID NO. 2), were each mixed with 10 μL of each of the PCR solutions containing a qPCR probe, primers, and PCR enzyme. […] The oligoDNA standard solutions were prepared as those containing either of 5×10^8, 5×10^7, 5×10^6, 5×10^5, 5×10^4, 5×10^3, 5×10^2, 5×10, 5, or 0 copies. For the oligo DNA standards, primers, and probes, oligonucleotides synthesized by Integrated DNA Technologies, Inc. (IDT) were used. […] FIGS. 3B and 3D show their detection mechanisms. The final concentrations of the primers and probes added were 0.4 μM and 0.15 μM, respectively. The qPCR was performed using the following conditions on a ViiA7 instrument (Applied Biosystems): first stage: 95° C. (1 min)→second stage: 95° C. (15 sec)→third stage: 60° C. (1 min)→40 repeated cycles of the second and third stages. The GAPDH mRNA was used as the internal control, and the commercially available 20×gene expression PCR assay (Life Technologies, 4326317E, Hs99999905_ml) and Standard GAPDH (SEQ ID NO. 7) (see FIG. 1) was used to determine the number of copies of this gene. The measurement values obtained for the samples to be measured were standardized against the respective value obtained for GAPDH.
Using the above-mentioned assays, the activities of the compounds of the Examples were evaluated. Specifically, the percentages of the FL-SMN and delta7 values obtained using DMSO without the compounds and standardized against GAPDH were set as 100% and those of the FL-SMN and delta7 values obtained at the time of administration of the compounds and standardized against GAPDH were calculated. […]
On the technique in general: In qPCR the cycle at which signal appears reflects the starting amount.
Regarding `Cc1nc2c(F)cc(-c3cc(F)c4nc(C5CCN(C)CC5)[nH]c(=O)c4c3)cc2o1` [Example 24, 8-Fluoro-6-(4-fluoro-2-methyl-1,3-benzoxazole 6-yl)-2-(1-methylpiperidin-4-yl) quinazoline 4-(3H)-one], the “Percentage of increase (FL-SMN mRNA standardized against GAPDH, DMSO control set as 100%)” value is given as “**** (equal to or higher than 180%)”.
Take `CCN1CCC(c2nc3ccc(-c4cc(F)c5nc(C)oc5c4)cc3c(=O)[nH]2)CC1` [Example 25, 2-(1-ethylpiperidin-4-yl)-6-(4-fluoro-2-methylu 1,3-benzoxazole-6-yl) kinazoline-4 (3H)-one]: the “Percentage of increase (FL-SMN mRNA standardized against GAPDH, DMSO control set as 100%)” value is given as “**** (equal to or higher than 180%)”.
The value for `Cc1cn2cc(-c3ccc4c(=O)n(C5CCN(C)CC5)cnc4c3)ccc2n1` [Example 26, 7-(2-methylimidazo[1,2-a]pyridine-6-yl)-3-(1-methylpiperidin-4-yl) kinazoline-4 (3H)-one] was “**** (equal to or higher than 180%)”; that for `Cc1nc2c(F)cc(-c3ccc4nc(C5CCN(C6CC6)CC5)[nH]c(=O)c4c3)cc2o1` [Example 27, 2-(1-cyclopropylpiperidin-4-yl)-6-(4-fluoro-2-methyl-1,3-benzoxazol-6-yl)quinazolin-4(3H)-one] was “**** (equal to or higher than 180%)”; that for `Cc1nc2c(F)cc(-c3cc(F)c4nc(C5CCN(C6CC6)CC5)[nH]c(=O)c4c3)cc2o1` [Example 28, 2-(1-cyclopropylpiperidin-4-yl)-8-fluoro-6-(4-fluoro-2-methyl-1,3-benzoxazol-6-yl)quinazolin-4(3H)-one] was “**** (equal to or higher than 180%)”.
With `Cc1nc2c(F)cc(-c3ccc4c(=O)n(C5CCN(C)CC5)cnc4c3)cc2o1` [Example 29, 7-(4-fluoro-2-methyl-1,3-benzoxazol-6-yl)-3-(1-methylpiperidin-4-yl)quinazolin-4(3H)-one], the “Percentage of increase (FL-SMN mRNA standardized against GAPDH, DMSO control set as 100%)” value was “**** (equal to or higher than 180%)”.
For `Cc1nc2ccc(-c3cc(F)c4nc(C5CCN(C)CC5)[nH]c(=O)c4c3)cc2o1` [Example 30, 8-fluoro-6-(2-methyl-1,3-benzoxazol-6-yl)-2-(1-methylpiperidin-4-yl)quinazolin-4(3H)-one], the “Percentage of increase (FL-SMN mRNA standardized against GAPDH, DMSO control set as 100%)” value was “**** (equal to or higher than 180%)”.
As for `Cc1nc2ccc(-c3cc(F)c4nc(C5CCN(C6CC6)CC5)[nH]c(=O)c4c3)cc2o1` [Example 31, 2-(1-cyclopropylpiperidin-4-yl)-8-fluoro-6-(2-methyl-1,3-benzoxazol-6-yl)quinazolin-4(3H)-one], the “Percentage of increase (FL-SMN mRNA standardized against GAPDH, DMSO control set as 100%)” value is recorded as “**** (equal to or higher than 180%)”.
As to `Cc1cn2cc(-c3ccc4nc(C5CCN(C6CC6)CC5)[nH]c(=O)c4c3)cc2cn1` [Example 32, 2-(1-cyclopropylpiperidin-4-yl)-6-(3-methylpyrrolo[1,2-a]pyrazin-7-yl)quinazolin-4(3H)-one], the “Percentage of increase (FL-SMN mRNA standardized against GAPDH, DMSO control set as 100%)” value is given as “**** (equal to or higher than 180%)”.
On to `Cc1cn2cc(-c3cc(F)c4nc(C5CCN(C6CC6)CC5)[nH]c(=O)c4c3)cc2cn1` [Example 33, 2-(1-cyclopropylpiperidin-4-yl)-8-fluoro-6-(3-methylpyrrolo[1,2-a]pyrazin-7-yl)quinazolin-4(3H)-one acetate], for which the “Percentage of increase (FL-SMN mRNA standardized against GAPDH, DMSO control set as 100%)” value is “*** (equal to or higher than 150% but lower than 180%)”.
Under `Cc1nc2c(F)cc(-c3ccc4c(=O)n(C5CCN(C6CC6)CC5)cnc4c3)cc2o1` [Example 34, 3-(1-cyclopropylpiperidin-4-yl)-7-(4-fluoro-2-methyl-1,3-benzoxazol-6-yl)quinazolin-4(3H)-one] stands “**** (equal to or higher than 180%)”; under `COc1ccc(-c2cc(F)c3nc(C4CCN(C5CC5)CC4)[nH]c(=O)c3c2)cc1F` [Example 35, 2-(1-cyclopropylpiperidin-4-yl)-8-fluoro-6-(3-fluoro-4-methoxyphenyl) quinazolin-4(3H)-one], “**** (equal to or higher than 180%)”.
Turning to `Cc1cn2nc(-c3nc4ccc(N5CCN(C6CC6)CC5)cc4c(=O)[nH]3)cc2c(C)n1` [Example 36, 6-(4-cyclopropylpiperazin-1-yl)-2-(4,6-dimethylpyrazolo[1,5-a]pyrazin-2-yl)quinazolin-4(3H)-one], the “Percentage of increase (FL-SMN mRNA standardized against GAPDH, DMSO control set as 100%)” value was “**** (equal to or higher than 180%)”.
Under `Cc1cn2cc(-c3ccc4nc(C5(F)CCN(C)CC5)[nH]c(=O)c4c3)ccc2n1` [Example 37, 2-(4-fluoro-1-methylpiperidin-4-yl)-6-(2-methylimidazo[1,2-a]pyridin-6-yl)quinazolin-4(3H)-one] stands “*** (equal to or higher than 150% but lower than 180%)”; under `Cc1nc2c(F)cc(-c3ccc4nc(C5CCN(C(C)C)CC5)[nH]c(=O)c4c3)cc2o1` [Example 38, 6-(4-Fluoro-2-methyl-1,3-benzoxazol-6-yl)-2-(1-isopropylpiperidin-4-yl)quinazolin-4(3H)-one], “**** (equal to or higher than 180%)”.
The value for `Cc1cn2cc(-c3ccc4c(=O)n(C5CCN(C6CC6)CC5)cnc4c3)cc(F)c2n1` [Example 39, 3-(1-cyclopropylpiperidin-4-yl)-7-(8-fluoro-2-methylimidazo[1,2-a]pyridin-6-yl)quinazolin-4(3H)-one] was “*** (equal to or higher than 150% but lower than 180%)”.
The value for `Cc1cn2cc(-c3cc(C)c4nc(C5CCN(C6CC6)CC5)[nH]c(=O)c4c3)cc(F)c2n1` [Example 40, 2-(1-cyclopropylpiperidin-4-yl)-6-(8-fluoro-2-methylimidazo[1,2-a]pyridin-6-yl)-8-methylquinazolin-4(3H)-one] was “**** (equal to or higher than 180%)”; that for `Cc1nc2ccc(-c3nc4cc(C)c(C5CCN(C)CC5)cc4c(=O)[nH]3)cc2o1` [Example 41, 7-methyl-2-(2-methyl-1,3-benzoxazol-6-yl)-6-(1-methylpiperidin-4-yl)quinazolin-4(3H)-one] was “* (equal to or higher than 100% but lower than 120%)”.
`CN1CCN(c2ccc3nc(C4=NOC5(CCN(C)CC5)C4)[nH]c(=O)c3c2)CC1` [Example 42, 2-(8-methyl-1-oxa-2,8-diazaspiro[4.5]dec-2-en-3-yl)-6-(4-methylpiperazin-1-yl)quinazolin-4(3H)-one]: the “Percentage of increase (FL-SMN mRNA standardized against GAPDH, DMSO control set as 100%)” value is on record as “* (equal to or higher than 100% but lower than 120%)”.
The value for `CN1CCC(c2ccc3nc(C4=NOC5(CCN(C)CC5)C4)[nH]c(=O)c3c2)CC1` [Example 43, 2-(8-methyl-1-oxa-2,8-diazaspiro[4.5]dec-2-en-3-yl)-6-(1-methylpiperidin-4-yl)quinazolin-4(3H)-one] was “* (equal to or higher than 100% but lower than 120%)”; that for `Cc1ccc(-c2nc3ccc(C4CCN(C)CC4)cc3c(=O)[nH]2)c(=O)n1C` [Example 44, 2-(1,6-dimethyl-2-oxo-1,2-dihydropyridin-3-yl)-6-(1-methylpiperidin-4-yl)quinazolin-4(3H)-one] was “** (equal to or higher than 120% but lower than 150%)”.
